Laboratory results as given in patent US9125857B2, “Method for producing a drug extract that contains hydroxystilbene” (priority 2005, dated 2015).

How the values were obtained:
[1] = Dissolving tests with ERr 731 dry extract in ethanol and glycerol; type: physicochemical; conditions: for dissolved proportion, % of theory, Test B / content found in solution, Test B: 200 mg of dry extract in 50 ml of ethanol 30% R; for content found in solution, Test B / content found in solution, Test C / content found in solution, Test D / content found in solution, Test A: extract content 61.9% rhaponticin, 29.9% deoxyrhaponticin; for dissolved proportion, % of theory, Test C / content found in solution, Test C: 200 mg of dry extract in 50 ml of ethanol 50% R; for dissolved proportion, % of theory, Test D / content found in solution, Test D: 200 mg of dry extract in 50 ml of ethanol 86% R; for dissolved proportion, % of theory, Test A / content found in solution, Test A: 200 mg of dry extract in 50 ml of glycerol R
Method: Determination of Stilbenes by High-Pressure Liquid Chromatography (HPLC) in the Dry Extract from Rhapontic Rhubarb Root
50 mg of extract, mixed with 40 ml of a mixture of acetone and water (1:1) in an amber glass vessel, treated in an ultrasonic bath for 15 minutes and made up to 50 ml with the solvent mixture and then diluted 1:10 with the solvent mixture.
A high-pressure liquid chromatography (HPLC) is carried out on a portion of the solution obtained above, with the following system parameters:
For a quantitative determination, the respective peak areas are found and compared with the corresponding peak areas of a standard extract of known composition.
a) Dissolving Tests with ERr 731® in Ethanol and Glycerol:
Content of the extract: • 61.9% rhaponticin • 29.9% deoxyrphaponticin

[2] = pH-dependent solubility of rhaponticin in aqueous solutions; type: physicochemical
From the text: Use is made of this for its isolation. Since, besides other organic acids, the root in particular has a high content of oxalic acid (⅔ in water-soluble and ⅓ in bound form), this must be neutralized during the isolation in order to prevent the pH drifting into the acidic range and thus to inhibit premature precipitation of the rhaponticin. This is achieved by using calcium oxide. The latter is employed as quicklime solution with a pH of 12.4-12.6.

| dissolved proportion, % of theory, Test B [1] | content found in solution, Test B [1] | dissolved proportion, % of theory, Test C [1] | content found in solution, Test C [1] | dissolved proportion, % of theory, Test D [1] | content found in solution, Test D [1] | dissolved proportion, % of theory, Test A [1] | content found in solution, Test A [1] | solubility in aqueous solutions ([2]; acidic pH range (pH 3.4-3.6)) | solubility in aqueous solutions ([2]; alkaline pH range) | Compound |
| --- | --- | --- | --- | --- | --- | --- | --- | --- | --- | --- |
| (84.2% of theory) | 25.2% deoxyrhaponticin | (97.0% of theory) | 29.0% deoxyrhaponticin | (98.7% of theory) | 29.5% deoxyrhaponticin | (90.6% of theory) | 27.1% deoxyrhaponticin |  |  | COc1ccc(C=Cc2cc(O)cc(O[C@@H]3O[C@H](CO)[C@@H](O)[C@H](O)[C@H]3O)c2)cc1 [deoxyrhaponticin] |
| (84.3% of theory) | 52.2% rhaponticin | (95.0% of theory) | 58.8% rhaponticin | (96.6% of theory) | 59.8% rhaponticin | (89.0% of theory) | 55.1% rhaponticin | precipitated | readily soluble | COc1ccc(C=Cc2cc(O)cc(O[C@@H]3O[C@H](CO)[C@@H](O)[C@H](O)[C@H]3O)c2)cc1O [rhaponticin, 3,3′,5-Trihydroxy-4′-methoxystilbene-3-O-β-D-glucopyranoside] |
